#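 Protocol summary: plate cells (96-well), add compound at 5 concentrations, incubate 48 h, interpolate endpoints linearly. TGI is the concentration that stops growth completely.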
# Experiments:
# Test in all cases: DTP human tumour cell line panel, 48 h
# SK-MEL-28 melanoma = system: SK-MEL-28 melanoma
# HT29 colon = system: HT29 colon
# K-562 leukemia = system: K-562 leukemia
# U251 CNS = system: U251 CNS
# HOP-92 NSCLC = system: HOP-92 NSCLC
# RXF 393 renal = system: RXF 393 renal
# SNB-19 CNS = system: SNB-19 CNS
# MDA-MB-231 breast = system: MDA-MB-231 breast
# OVCAR-3 ovarian = system: OVCAR-3 ovarian
# RPMI-8226 leukemia = system: RPMI-8226 leukemia
# HCT-116 colon = system: HCT-116 colon
# NCI-H460 lung = system: NCI-H460 lung
# 786-0 renal = system: 786-0 renal
# CCRF-CEM leukemia = system: CCRF-CEM leukemia
# ACHN renal = system: ACHN renal
# IGROV1 ovarian = system: IGROV1 ovarian
# OVCAR-5 ovarian = system: OVCAR-5 ovarian
# NCI-H226 lung = system: NCI-H226 lung
# MALME-3M melanoma = system: MALME-3M melanoma
SMILES,TGI (SK-MEL-28 melanoma) [µM],TGI (HT29 colon) [µM],TGI (K-562 leukemia) [µM],TGI (U251 CNS) [µM],TGI (HOP-92 NSCLC) [µM],TGI (RXF 393 renal) [µM],TGI (SNB-19 CNS) [µM],TGI (MDA-MB-231 breast) [µM],TGI (OVCAR-3 ovarian) [µM],TGI (RPMI-8226 leukemia) [µM],TGI (HCT-116 colon) [µM],TGI (NCI-H460 lung) [µM],TGI (786-0 renal) [µM],TGI (CCRF-CEM leukemia) [µM],TGI (ACHN renal) [µM],TGI (IGROV1 ovarian) [µM],TGI (OVCAR-5 ovarian) [µM],TGI (NCI-H226 lung) [µM],TGI (MALME-3M melanoma) [µM]
Cc1cc2nc(N3C(=O)/C(=C/c4cccc([N+](=O)[O-])c4)N=C3c3ccccc3)sc2cc1C,> 100,75.9,> 100,58,58.2,58,> 100,> 100,> 100,48.1,> 100,> 100,> 100,23.4,> 100,> 100,> 100,–,–
COC(=O)[C@@H]1C=C[C@@H](C#N)n2c(=O)n(-c3ccccc3)c(=O)n21,> 100,93.2,> 100,> 100,> 100,–,> 100,93.6,58.9,73.3,> 100,–,84.7,51.3,> 100,> 100,> 100,40.4,–
COc1cc2c(cc1OC)C1Cc3ccccc3CCN1CC2 (centres undefined),> 100,> 100,> 100,> 100,> 100,–,> 100,> 100,> 100,> 100,> 100,> 100,> 100,> 100,> 100,> 100,> 100,> 100,> 100
CC(C)Nc1[nH]c(C(=O)c2ccccc2)c(N)c1C(=S)Nc1ccccc1,35.1,91.3,> 100,> 100,> 100,–,> 100,> 100,> 100,–,> 100,> 100,> 100,> 100,> 100,> 100,> 100,> 100,43.8
Cc1ccc(S(=O)(=O)N2CCCSCCSCCCSCC2)cc1,> 100,> 100,> 100,> 100,> 100,–,> 100,> 100,> 100,–,> 100,> 100,> 100,> 100,–,> 100,> 100,–,–
Cc1nc2c(o1)C(=O)c1ccccc1C2=NC1CCCCC1N (centres undefined),0.313,5.33,> 100,1.32,1.97,–,2.1,2.75,1.66,4.2,0.729,3.15,3.43,1.28,2,2.89,3.24,3.75,0.275
CC[C@@H]1CN2CCC1C[C@@H]2C(O)c1ccnc2ccc(OCCN3CCN(CCOc4ccc5nccc(C(O)[C@@H]6C[C@@H]7CCN6C[C@@H]7CC)c5c4)CC3)cc12 (some centres undefined),35.5,30.2,6.2,33.1,22.8,34.2,27.9,31.3,36,8.45,28.3,38.4,30.2,15.7,28.8,36.7,32.9,–,54.1
Cc1ccc(S(=O)(=O)NC(=O)NC(CO)C(=O)O)cc1 (centres undefined),> 100,> 100,> 100,> 100,> 100,> 100,> 100,> 100,–,> 100,> 100,> 100,> 100,> 100,> 100,> 100,> 100,–,> 100
CC1=C2C(=O)O[C@@H](c3ccoc3)[C@]2(C)CCC1=O,> 100,–,> 100,> 100,> 100,–,> 100,> 100,> 100,> 100,> 100,> 100,> 100,> 100,> 100,> 100,> 100,> 100,–
CCOC(=O)N1CCN(Cc2cc(=O)n3cc(C)ccc3n2)CC1,> 100,> 100,> 100,> 100,> 100,–,> 100,> 100,> 100,> 100,> 100,> 100,> 100,> 100,> 100,> 100,> 100,> 100,> 100
O=C(O)C(Cc1ccc2c(c1)CCC2)(Cc1ccc2c(c1)CCC2)C(=O)O,> 100,> 100,> 100,> 100,–,> 100,> 100,> 100,> 100,> 100,> 100,> 100,> 100,> 100,> 100,> 100,> 100,> 100,> 100
COCCOCN(C(=O)C1=CCC2(CC1)OCCO2)c1ccccc1I,> 50,> 50,–,> 50,> 50,–,> 50,> 50,> 50,> 50,> 50,> 50,> 50,> 50,> 50,–,> 50,> 50,–
CNNC1=NS(=O)(=O)c2cc(C)c(Cl)cc2S1,> 10,> 10,> 10,> 10,–,> 10,> 10,> 10,> 10,> 10,> 10,> 10,> 10,> 10,> 10,> 10,> 10,> 10,> 10
COc1ncnc2c1cnn2Cc1cn(COCC(O)CO)nn1 (centres undefined),> 100,> 100,> 100,> 100,> 100,–,> 100,> 100,> 100,> 100,> 100,–,> 100,> 100,> 100,> 100,> 100,> 100,–
COc1ccc2c(c1)c1nn(CCN(C)C)c3ccc4c(=O)n(CCN(C)C)c(=O)n2c4c13,0.854,–,0.448,1.69,–,0.38,0.635,0.26,0.255,< 0.0192,0.294,0.0142,0.136,0.107,0.432,1.65,0.44,1.1,0.555
Cc1cccc(/C=N/NC(=S)NCc2ccccn2)n1,> 100,> 100,> 100,> 100,98.5,–,> 100,> 100,> 100,> 100,> 100,> 100,> 100,> 100,67.5,> 100,> 100,> 100,> 100
CC(=O)N1c2ccccc2C(C)(C)OC1C(Cl)(Cl)Cl (centres undefined),> 100,> 100,–,> 100,78.9,–,> 100,> 100,> 100,33.6,> 100,> 100,> 100,> 100,> 100,> 100,> 100,> 100,> 100
ClC(Cl)(Cl)C1CCOC1n1nc2ccccc2n1 (centres undefined),–,> 100,> 100,> 100,–,> 100,–,> 100,> 100,–,> 100,> 100,> 100,> 100,–,> 100,> 100,> 100,> 100
CN(C)CCOc1ccc(I)cc1Cc1ccccc1,16.6,17,11.2,27.1,–,32.5,28,12.3,26.7,23.9,22.4,26.8,23,18.5,24.7,17.4,29.7,33.9,29.9
Cc1cc(C)c(S(=O)(=O)N[C@@H](/C=C(\Br)CO)C(C)C)c(C)c1,> 100,> 100,50.4,> 100,75.5,63.3,> 100,> 100,51.8,54.5,> 100,85.4,> 100,90.1,> 100,> 100,> 100,–,61.6
CCOC(=O)C1(Cc2ccccc2)Cc2cc3c(cc2C1)CCC3,> 100,46.2,> 100,> 100,–,–,> 100,> 100,> 100,51.7,> 100,> 100,> 100,36.6,> 100,> 100,66.3,76.8,> 100
CCOc1cc(/C=N\N(C)C)cc(/C=N\N(C)C)c1O,> 100,> 100,> 100,89.9,49.7,–,> 100,> 100,> 100,> 100,> 100,> 100,> 100,> 100,56,–,> 100,> 100,> 100
Cc1cc(S(N)(=O)=O)c(SCc2nc(N)nc(N(C)C)n2)cc1Cl,> 10,> 10,> 10,> 10,> 10,> 10,> 10,–,> 10,> 10,> 10,> 10,> 10,> 10,> 10,> 10,> 10,> 10,> 10
COC(=O)C1Cc2ccc(C)cc2C1=O (centres undefined),> 100,> 100,> 100,> 100,–,–,> 100,> 100,> 100,> 100,> 100,> 100,> 100,> 100,> 100,> 100,> 100,> 100,> 100
O=[N+]([O-])c1ccc(Cl)cc1-n1nc(-c2ccccc2)cc1-c1ccccc1,> 100,> 100,> 100,> 100,> 100,–,> 100,> 100,> 100,> 100,> 100,> 100,> 100,> 100,> 100,> 100,> 100,> 100,> 100
N#Cc1ncn(-c2ccccc2)c1N,> 100,> 100,> 100,> 100,–,–,> 100,> 100,> 100,> 100,> 100,> 100,> 100,> 100,> 100,> 100,> 100,> 100,> 100
S=C(NNC1=NCCCN1)Nc1ccccc1,> 100,> 100,> 100,> 100,> 100,> 100,> 100,–,> 100,79,> 100,> 100,> 100,> 100,> 100,> 100,> 100,> 100,> 100
CC(C)C1CC=NN1C(=O)OC(C)(C)C (centres undefined),–,> 100,> 100,–,> 100,> 100,–,–,> 100,> 100,> 100,> 100,> 100,> 100,> 100,> 100,> 100,> 100,–
